Measured values reported in paper PMC7343282, “Tissue Distribution of Several Series of Cationic Surfactants in Rainbow Trout (Oncorhynchus mykiss) Following Exposure via Water” (Environmental Science & Technology, 2020).
Where two headings read alike, the source gives them in different places.

How the values were obtained:
[1] = test system: rainbow trout (Oncorhynchus mykiss); assay: Contribution of tissues to fish body burden; assay type: in vivo; settings: for % contribution to body burden, Gills / % contribution to body burden, Liver / % contribution to body burden, Mucus / % contribution to body burden, Muscle / % contribution to body burden, Skin / Share of body burden present in gills and mucus / Share of body burden in interior tissues (blood, liver, and muscle): in vivo; for Contribution of Other tissue (all apart from blood, liver, gills and skin; muscle concentration assumed) to body burden: fraction
Excerpt: To calculate the quantity of the test chemical in the different tissues, the amount of each tissue in the fish was estimated and multiplied by the concentration in that tissue. The test chemical quantities in the different tissues were then summed to give the body burden in each fish. The total weight of the fish and the weight of the liver and gills were available from the dissection (Table S16). For skin and mucus, the estimated outer surface area of the fish was used. We note that the distinction between mucus and skin is an operational one determined by the extraction method; mucus can be viewed as a more readily extracted fraction of the test chemical residues at the fish surface. The volume of blood was taken as 0.0495 mL g^–1 fish.[30] The remaining tissue (difference between the weight of the whole fish and the weight of liver, gills, skin, and blood) was assumed to have the concentration measured in the muscle. The contribution of the different tissues to the body burden is given for each fish in Table S17, and the average contribution across all fish is plotted in Figure 1. All of the tissues, with the exception of blood, contribute at least 10% of the body burden for at least half of the test chemicals. There is no consistent negative correlation between the fraction of chemical associated with blood, muscle, and liver (tissues where the residue originates entirely from systemic uptake) and alkyl chain length (a measure of hydrophobicity). Thus, although adsorption to fish surfaces appears to play a significant role, its contribution to body burden cannot be simply predicted from surfactant hydrophobicity. In the following, we examine uptake in individual tissues.

[2] = test system: rainbow trout (Oncorhynchus mykiss); assay: Surface area-normalized mucus-water and gill-water distribution coefficients; settings: in vivo
Procedure: For each mixture, the syringe pump was started in an aquarium containing no fish. After 16 h, to allow the concentrations to stabilize, 12 rainbow trout were added. After 7 d of exposure, the fish in the exposure aquaria as well as several unexposed (control) fish were sacrificed. Following stunning, blood was collected with a heparinized syringe from the caudal vein into a 2 mL Eppendorf tube. The fish were weighed and photographed, and the length was measured. The outer surface area of the fish was estimated from the fish weight according to O’Shea et al.[27] [drawing 1] 1
The gill surface area was estimated from the fish weight according to the equation specific for O. mykiss from a report by Hughes,[28] taken from ref ([29]) [drawing 2] 2
Because the mass of extracted mucus was not determined, the concentrations in mucus were normalized to the estimated fish’s total surface area (eq 1) excluding the head, which was not rinsed.
Surface area-normalized gill–water distribution coefficients (DG–W) were calculated from the average concentrations measured in gills and water, and a calculated gill surface based on rainbow trout specific scaling factors (eq 2). […] Unlike the skin, the gills were not rinsed with methanol, so the gill samples included gill mucus.

Salmo trutta = test system: Salmo trutta; set-up: method as in REACH dossiers (European Chemicals Agency); settings: ref REACH dossiers (European Chemicals Agency); cited from earlier work
Danio rerio = settings: ref REACH dossiers (European Chemicals Agency); cited from earlier work
[3] = cited from earlier work
[4] = cited from earlier work; remark: listed apart in the source
[5] = test system: bluegill fish (Lepomis macrochirus); settings: cited from earlier work
killifish = settings: cited from earlier work
[6] = secondary amines, no reference given

| Compound | % contribution to body burden, Gills [1] | % contribution to body burden, Liver [1] | % contribution to body burden, Mucus [1] | % contribution to body burden, Muscle [1] | % contribution to body burden, Skin [1] | Gill-water distribution coefficient (DG-W) [2] | Mucus-water distribution coefficient (DMuc-W) [2] | also measured |
| --- | --- | --- | --- | --- | --- | --- | --- | --- |
| CCCCCCCCCC[N+](C)(C)C [Q10, N,N,N-trimethyl-1-decylammonium] | 23% | 3% | 11% | 37% | 24% | 0.0064 mLcm-2 | 0.0035 mL cm-2 | DG–W factor lower than tertiary amine of the same alkyl chain length [2]: 300; DMuc–W times lower than tertiary amine with the corresponding alkyl chain length [2]: 360 |
| CCCCCCCCCCCCCC[N+](C)(C)C [Q14, N,N,N-trimethyl-1-tetradecylammonium] | 70% | 5% | 10% | 7% | 8% | 9.5 mLcm-2 | 1.40 mL cm-2 | Share of body burden present in gills and mucus [1]: at least 50%; DG–W factor lower than tertiary amine of the same alkyl chain length [2]: 18; DMuc–W higher than Q10 [2]: 2.6 log units; DMuc–W times lower than tertiary amine with the corresponding alkyl chain length [2]: 37 |
| CCCCCCCCCCCCNC [S12, N-methyldodecylamine] | 20% | 17% | 7% | 32% | 21% | 13.3 mLcm-2 | 5.4 mL cm-2 | Share of body burden in interior tissues (blood, liver, and muscle) [1]: more than half |
| CCCCCCCCCCCCCCCCNC [S16, N-methylhexadecylamine] | 53% | 12% | 4% | 16% | 14% | 300 mLcm-2 | 27 mL cm-2 | Share of body burden present in gills and mucus [1]: at least 50% |
| CCCCCCCCCCN(C)C [T10, N,N-dimethyldecylamine] | 14% | 18% | 8% | 38% | 18% | 1.95 mLcm-2 | 1.28 mL cm-2 | Contribution of Other tissue (all apart from blood, liver, gills and skin; muscle concentration assumed) to body burden ([1]; Fish #1): 0.54; Contribution of Other tissue (all apart from blood, liver, gills and skin; muscle concentration assumed) to body burden ([1]; Fish #2): 0.33; Contribution of Other tissue (all apart from blood, liver, gills and skin; muscle concentration assumed) to body burden ([1]; Fish #3): 0.35; Contribution of Other tissue (all apart from blood, liver, gills and skin; muscle concentration assumed) to body burden ([1]; Fish #4): 0.29; Contribution of Other tissue (all apart from blood, liver, gills and skin; muscle concentration assumed) to body burden ([1]; Fish #5): 0.38; Contribution of Other tissue (all apart from blood, liver, gills and skin; muscle concentration assumed) to body burden ([1]; Fish #6): 0.37; Contribution of Other tissue (all apart from blood, liver, gills and skin; muscle concentration assumed) to body burden ([1]; Mean): 0.38; Share of body burden in interior tissues (blood, liver, and muscle) [1]: more than half; 96h-LC50 (Salmo trutta): 1.8 µg/mL; 96h-LC50 (Danio rerio): 1.13 µg/mL |
| CCCCCCCCCCCCCCN(C)C [T14, N,N-dimethyltetradecylamine] | 34% | 7% | 11% | 22% | 24% | 150 mLcm-2 | 51 mL cm-2 | Contribution of Other tissue (all apart from blood, liver, gills and skin; muscle concentration assumed) to body burden ([1]; Fish #1): 0.22; Contribution of Other tissue (all apart from blood, liver, gills and skin; muscle concentration assumed) to body burden ([1]; Fish #2): 0.21; Contribution of Other tissue (all apart from blood, liver, gills and skin; muscle concentration assumed) to body burden ([1]; Fish #3): 0.24; Contribution of Other tissue (all apart from blood, liver, gills and skin; muscle concentration assumed) to body burden ([1]; Fish #4): 0.21; Contribution of Other tissue (all apart from blood, liver, gills and skin; muscle concentration assumed) to body burden ([1]; Fish #5): 0.20; Contribution of Other tissue (all apart from blood, liver, gills and skin; muscle concentration assumed) to body burden ([1]; Fish #6): 0.24; Contribution of Other tissue (all apart from blood, liver, gills and skin; muscle concentration assumed) to body burden ([1]; Mean): 0.22; 96h-LC50 (Salmo trutta): 0.18 µg/mL; 96h-LC50 (Danio rerio): 0.35 µg/mL |
| CN(C)CCC=C1c2ccccc2CCc2ccccc21 [amitriptyline, reference compound] |  |  |  |  |  |  |  | pKa [3]: […]; log DMW [4]: 3.9 |
| CCCCCCCCCC[N+](C)(C)CCCCCCCCCC [didecyldimethylammonium chloride] |  |  |  |  |  |  |  | bioconcentration factor (BCF) ([5]; 14C-labeled): 81 L kg^–1; 14C residues in the skin, times higher than in edible tissues [5]: 2–6 |
| COc1ccc([C@@H]2Sc3ccccc3N(CCN(C)C)C(=O)[C@@H]2OC(C)=O)cc1 [diltiazem] |  |  |  |  |  |  |  | Vd, plasma concentration based (killifish): 0.19–0.28 L kg^–1 |
| CNCCC(Oc1ccc(C(F)(F)F)cc1)c1ccccc1 (centres unmarked) [fluoxetine, reference compound] |  |  |  |  |  |  |  | pKa [3, 6]: > 9.5 |
| CN[C@H]1CC[C@@H](c2ccc(Cl)c(Cl)c2)c2ccccc21 [sertraline, reference compound] |  |  |  |  |  |  |  | pKa [3, 6]: > 9.5; log DMW ([4]; membrane–water distribution coefficient): 4.3 |
